The test deals with T1, GABA A α5 (human receptors of composition α5β3γ2) (Homo sapiens, UniProt P18507+P31644).
T1 construct: expressed in transfected cells; host or cells: HEK293 cells, transiently transfected; membrane homogenates used
Description: [3H]flumazenil competition binding assay, human GABA A α5β3γ2 receptors in HEK293 cells. The settings on record: displacement of 0.5 nM [3H]flumazenil, HEK293 membranes, 1 hour at 4° C., means of two determinations, read-out: hKi GABA A α5. As to the method:
The affinity of compounds at GABA A receptor subtypes was measured by competition for [^3H]flumazenil (85 Ci/mmol; Roche) binding to HEK293 cells expressing rat (stably transfected) or human (transiently transfected) receptors of composition α1β3γ2, α2β3γ2, α3β3γ2 and α5β3γ2.
Cell pellets were suspended in Krebs-tris buffer (4.8 mM KCl, 1.2 mM CaCl2, 1.2 mM MgCl2, 120 mM NaCl, 15 mM Tris; pH 7.5; binding assay buffer), homogenized by polytron for ca. 20 sec on ice and centrifuged for 60 min at 4° C. (50000 g; Sorvall, rotor: SM24=20000 rpm). The cell pellets were re-suspended in Krebs-tris buffer and homogenized by polytron for ca. 15 sec on ice. Protein was measured (Bradford method, Bio-Rad) and aliquots of 1 mL were prepared and stored at −80° C.
Radioligand binding assays were carried out in a volume of […] (96-well plates) which contained […] of cell membranes, [^3H]flumazenil at a concentration of 1 nM for α1, α2 and α3 subunits and 0.5 nM for α5 subunits and the test compound in the range of […]. Nonspecific binding was defined by 10^−5 M diazepam and typically represented less than 5% of the total binding. Assays were incubated to equilibrium for 1 hour at 4° C. and harvested onto GF/C uni-filters (Packard) by filtration using a Packard harvester and washing with ice-cold wash buffer (50 mM Tris; pH 7.5). After drying, filter-retained radioactivity was detected by liquid scintillation counting. Ki values were calculated using Excel-Fit (Microsoft) and are the means of two determinations.

The results in this text go back to patent US8415379B2, “Pyridines” (Hoffmann-La Roche Inc., priority 2009, dated 2013).

As to `Cc1onc(-c2ccccn2)c1COc1ccc(C(=O)NCCO)nc1` [Example 14, 5-(5-Methyl-3-pyridin-2-yl-isoxazol-4-ylmethoxy)-pyridine-2-carboxylic acid (2-hydroxy-ethyl)-amide], the Ki turned out to be 7.8 nM. As for `O=C(NC1CCOCC1)c1ccc(OCc2c(-c3ccc(F)cc3)noc2CO)cn1` [Example 30, 5-[3-(4-Fluoro-phenyl)-5-hydroxymethyl-isoxazol-4-ylmethoxy]-pyridine-2-carboxylic acid (tetrahydro-pyran-4-yl)-amide], the Ki worked out at 30.3 nM. To `Cc1onc(-c2ccccc2)c1COc1ccc(C(=O)NCCO)nc1` [Example 1, 5-(5-Methyl-3-phenyl-isoxazol-4-ylmethoxy)-pyridine-2-carboxylic acid (2-hydroxy-ethyl)-amide] belongs 15.4 nM; to `CC(NC(=O)c1ccc(OCc2c(-c3ccc(F)cc3)noc2CO)cn1)C(F)(F)F` (stereo not shown) [Example 32, 5-[3-(4-Fluoro-phenyl)-5-hydroxymethyl-isoxazol-4-ylmethoxy]-pyridine-2-carboxylic acid (2,2,2-trifluoro-1-methyl-ethyl)-amide], 60.4 nM; to `Cc1onc(-c2ccccn2)c1COc1ccc(C(=O)NC2CC2)nc1` [Example 11, 5-(5-Methyl-3-pyridin-2-yl-isoxazol-4-ylmethoxy)-pyridine-2-carboxylic acid cyclopropyl amide], 3.5 nM. In the case of `Cc1onc(-c2ccc(F)cn2)c1COc1ccc(C(=O)NC(C)(C)CO)nc1` [Example 24, 5-[3-(5-Fluoro-pyridin-2-yl)-5-methyl-isoxazol-4-ylmethoxy]-pyridine-2-carboxylic acid (2-hydroxy-1,1-dimethyl-ethyl)-amide] it was 17.5 nM; in that of `Cc1onc(-c2ccc(F)cn2)c1COc1ccc(C(=O)NCC(F)(F)F)nc1` [Example 28, 5-[3-(5-Fluoro-pyridin-2-yl)-5-methyl-isoxazol-4-ylmethoxy]-pyridine-2-carboxylic acid (2,2,2-trifluoro-ethyl)-amide], 4.2 nM.

As for `CC[C@@H](CO)NC(=O)c1ccc(OCc2c(-c3ccccn3)noc2C)cn1` [Example 21, 5-(5-Methyl-3-pyridin-2-yl-isoxazol-4-ylmethoxy)-pyridine-2-carboxylic acid ((S)-1-hydroxymethyl-propyl)-amide], the Ki came out at 4.3 nM. In the case of `Cc1onc(-c2ccccn2)c1COc1ccc(C(=O)Nc2cnn(C)c2)nc1` [Example 19, 5-(5-Methyl-3-pyridin-2-yl-isoxazol-4-ylmethoxy)-pyridine-2-carboxylic acid (1-methyl-1H-pyrazol-4-yl)-amide] it was 1.7 nM; in that of `Cc1onc(-c2ccccc2)c1COc1ccc(C(=O)NC(C)C)nc1` [Example 2, 5-(5-Methyl-3-phenyl-isoxazol-4-ylmethoxy)-pyridine-2-carboxylic acid isopropylamide], 8.9 nM.

In the case of `Cn1cc(NC(=O)c2ccc(OCc3c(-c4ccc(F)cc4)noc3CO)cn2)cn1` [Example 35, 5-[3-(4-Fluoro-phenyl)-5-hydroxymethyl-isoxazol-4-ylmethoxy]-pyridine-2-carboxylic acid (1-methyl-1H-pyrazol-4-yl)-amide], the Ki turned out to be 3.4 nM. For `Cc1onc(-c2ccccc2)c1COc1ccc(C(=O)NN2CCOCC2)nc1` [Example 5, 5-(5-Methyl-3-phenyl-isoxazol-4-ylmethoxy)-pyridine-2-carboxylic acid morpholin-4-ylamide], the Ki stood at 17 nM.

For `CNC(=O)c1ccc(OCc2c(-c3ccccn3)noc2C)cn1` [Example 16, 5-(5-Methyl-3-pyridin-2-yl-isoxazol-4-ylmethoxy)-pyridine-2-carboxylic acid methylamide], the Ki was found to be 7.1 nM.

As to `Cc1onc(-c2ccccn2)c1COc1ccc(C(=O)N2CCS(=O)(=O)CC2)nc1` [Example 10, (1,1-Dioxo-1,6-thiomorpholin-4-yl)-[5-(5-methyl-3-pyridin-2-yl-isoxazol-4-ylmethoxy)-pyridin-2-yl]-methanone], the Ki was 34.2 nM. To `Cc1onc(-c2ccccn2)c1COc1ccc(C(=O)NC2CCOCC2)nc1` [Example 6, 5-(5-Methyl-3-pyridin-2-yl-isoxazol-4-ylmethoxy)-pyridine-2-carboxylic acid (tetrahydro-pyran-4-yl)-amide] belongs 4.8 nM; to `Cc1onc(-c2ccc(F)cn2)c1COc1ccc(C(=O)NC(C)C)nc1` [Example 23, 5-[3-(5-Fluoro-pyridin-2-yl)-5-methyl-isoxazol-4-ylmethoxy]-pyridine-2-carboxylic acid isopropylamide], 3.3 nM. To `CC(C)NC(=O)c1ccc(OCc2c(-c3ccc(F)cc3)noc2CO)cn1` [Example 29, 5-[3-(4-Fluoro-phenyl)-5-hydroxymethyl-isoxazol-4-ylmethoxy]-pyridine-2-carboxylic acid isopropylamide] belongs 70.2 nM; to `Cc1onc(-c2ccccn2)c1COc1ccc(C(=O)NCC(F)(F)F)nc1` [Example 13, 5-(5-Methyl-3-pyridin-2-yl-isoxazol-4-ylmethoxy)-pyridine-2-carboxylic acid (2,2,2-trifluoro-ethyl)-amide], 4.6 nM.

As for `Cc1onc(-c2ccc(F)cn2)c1COc1ccc(C(=O)NC2CC2)nc1` [Example 27, 5-[3-(5-Fluoro-pyridin-2-yl)-5-methyl-isoxazol-4-ylmethoxy]-pyridine-2-carboxylic acid cyclopropylamide], the Ki came out at 2.6 nM. With `O=C(NC1CC1)c1ccc(OCc2c(-c3ccc(F)cc3)noc2CO)cn1` [Example 31, 5-[3-(4-Fluoro-phenyl)-5-hydroxymethyl-isoxazol-4-ylmethoxy]-pyridine-2-carboxylic acid cyclopropylamide], the Ki came out at 23.3 nM.

As to `O=C(NN1CCCC1)c1ccc(OCc2c(-c3ccc(F)cc3)noc2CO)cn1` [Example 38, 5-[3-(4-Fluoro-phenyl)-5-hydroxymethyl-isoxazol-4-ylmethoxy]-pyridine-2-carboxylic acid pyrrolidin-1-ylamide], the Ki is 3.4 nM. In the case of `Cc1onc(-c2ccccn2)c1COc1ccc(C(=O)NC(C)(C)CO)nc1` [Example 8, 5-(5-Methyl-3-pyridin-2-yl-isoxazol-4-ylmethoxy)-pyridine-2-carboxylic acid (2-hydroxy-1,1-dimethyl-ethyl)-amide] it was 22.3 nM; in that of `O=C(NN1CCOCC1)c1ccc(OCc2c(-c3ccc(F)cc3)noc2CO)cn1` [Example 39, 5-[3-(4-Fluoro-phenyl)-5-hydroxymethyl-isoxazol-4-ylmethoxy]-pyridine-2-carboxylic acid morpholin-4-ylamide], 0.8 nM. To `Cc1onc(-c2ccc(F)cn2)c1COc1ccc(C(=O)NN2CCOCC2)nc1` [Example 25, 5-[3-(5-Fluoro-pyridin-2-yl)-5-methyl-isoxazol-4-ylmethoxy]-pyridine-2-carboxylic acid morpholin-4-ylamide] belongs 3.9 nM; to `Cc1onc(-c2ccc(F)cn2)c1COc1ccc(C(=O)N2CCS(=O)(=O)CC2)nc1` [Example 26, (1,1-Dioxo-1,6-thiomorpholin-4-yl)-{5-[3-(5-fluoro-pyridin-2-yl)-5-methyl-isoxazol-4-ylmethoxy]-pyridin-2-yl}-methanone], 36.9 nM.
